Columns and labels:
[1] = pH of the solution/suspension of a composition in deionized water; assay type: physicochemical; settings: ascorbic acid/calcium carbonate mixtures; amount equivalent to 50 mg ascorbic acid in 25 ml deionized water, stirred ten minutes
Protocol: As discussed herein, the pH of the present composition is measured by any suitable means well known to persons of ordinary skill in the art. […] Another non-limiting exemplary technique for measuring the pH of a dosage form is to use a glass mortar and pestle to grind one tablet until a finely divided uniform powder is obtained. The finely divided uniform powder is then added to an appropriate vessel and the pH is then determined as in manner of the preceding example.
To the beaker was added 25 ml of deionized water. The contents of the beaker were then vigorously stirred for ten minutes. The pH of the resultant solution/suspension was then measured.
To the beaker was added 25 ml of deionized water. The contents were then vigorously stirred for ten minutes. The pH of the resultant solution/suspension was then measured.
In comparison, a conventional chewable prenatal supplement containing 1000 IU of vitamin A, 400 IU of vitamin D3, 11 IU of vitamin E, 120 mg of vitamin C, 1 mg of folic acid, 2 mg of vitamin B1, 3 mg of riboflavin, 20 mg of niacin, 10 mg of vitamin B6, 12 mcg of vitamin B12 and 29 mg of iron was obtained. […] To the beaker was added 25 ml of deionized water. The contents were then vigorously stirred for ten minutes or until dissolved. The pH of the resultant solution/suspension was then measured.

[2] = cited from earlier work

| pH Value [1] | SMILES | share of dietary folic acid available to the body (bioavailability) [2] |
| --- | --- | --- |
| 3.32 | O=C1O[C@H]([C@@H](O)CO)C(O)=C1O [Ascorbic Acid] | – |
| – | Nc1nc2ncc(CNc3ccc(C(=O)N[C@@H](CCC(=O)O)C(=O)O)cc3)nc2c(=O)[nH]1 [Folic acid, pteroylglutamic acid] | about half |

— patent US6352713B1, “Nutritional composition” (Drugtech Corporation, priority 1999, dated 2002)
